# Results published in patent US20260174858A1, “TARGETING THE m6A MRNA DEMETHYLASE FTO” (University of Virginia Patent Foundation, priority 2022, published 2026).
# Key:
# human ARPE-19 cells = experiment: VEGFA release in human ARPE-19 cells; format: cell-based
# Wild type BMDMs = experiment: LPS-induced IL-6 release on BMDMs (ELISA); format: cell-based, mouse; conditions: FB23-2 20 uM pre-treatment 1 hour, then 250 ng/ml LPS 6 hours, p<0.0001
# Procedure: Primary WT or mutant mouse bone marrow derived macrophages (BMDMs) were isolated as previously described (4). BMDMs were cultured in IMDM (Gibco) basal medium containing 10% fetal bovine serum (FBS), 30% L929 supernatants, nonessential amino acids, sodium pyruvate, 2-mercaptoethanol, and antibiotics. THP-1 cells were cultured in RPMI 1640 medium with 10% FBS and antibiotics. Human RPE cells were isolated as previously described and cultured in DMEM medium with 10% FBS and antibiotics. All cells were maintained at 37° C. in a 5% CO2 environment.
# Secreted IL-6 in the BMDMs medium or serum IL-6, TNF-alpha, and IL-1alpha were detected by ELISA (Mouse IL-1 alpha/IL-1F1 DuoSet, R&D Systems, DY400; Mouse IL-6 DuoSet, R&D Systems, DY406; Mouse TNF-alpha DuoSet, R&D Systems, DY410) according to the manufacturer's instructions.
# Wild type C57BL/6J mice = experiment: VEGFA ELISA of RPE-choroid after laser injury; format: in vivo, mouse; conditions: FTOi i.p. plus 25 ng intravitreous, day 3 after laser injury
# Procedure: Laser photocoagulation (532 nm, 180 mW, 100 ms, 75 μm) (OcuLight GL; IRIDEX Corp., Mountain View, CA, USA) was performed bilaterally (volume studies: 4 spots per eye; RNA analyses: 10 spots per eye) in 6- to 8-week-old mice on day 0 to induce CNV as previously described 1-3. For drug treatment, the mice pretreated with FTO inhibitor (FB23-2, SML2694, Sigma) or vehicle (DMSO) through intraperitoneal injection (i.p, 2 mg/kg). Then, the mice were subjected to laser photocoagulation followed by intravitreous injection of the FTO inhibitor (25 ng/0.5 μl per eye) or vehicle. At day 3 after laser injury, the mice were administered the FTO inhibitor (2 mg/kg) or vehicle via intraperitoneal injection. At day 7, the eyes were collected for fluorescein labeled-isolectin B4 and F4/80 staining and for neovascular volume quantification.
# The RPE-choroid complex was isolated from mouse eyes on day 3 after laser injury and treatment with FTO inhibitor or vehicle. […] The lysate was centrifuged at 20,000×g for 15 minutes at 4° C., and total protein in the lysates was quantified using the Thermo Scientific™ Pierce™ BCA™ Protein Assay (Fisher Scientific, PI23225, USA). VEGFA protein levels in the supernatants were measured by VEGF DuoSet ELISA (R&D Systems, DY493, USA), following the manufacturer's instructions. […]
structure (smiles),measurement,setting,value
Cc1noc(C)c1-c1cc(Cl)c(Nc2ccccc2C(=O)NO)c(Cl)c1 [FB23-2],VEGFA release,human ARPE-19 cells,suppressed the VEGFA release
same,LPS-induced IL-6 release,Wild type BMDMs,reduces LPS-induced IL-6 release
same,VEGFA protein levels in laser treated RPE-choroid tissue,Wild type C57BL/6J mice,inhibits VEGFA release in vivo
same,VEGFA protein levels in laser treated RPE-choroid tissue,Wild type C57BL/6J mice; listed as selective inhibitor,suppressed VEGFA protein levels
